Results as given in ChEMBL document CHEMBL2029312, “The antibacterial activity of 4,4'-bipyridinium amphiphiles with conventional, bicephalic and gemini architectures” (Bioorg Med Chem Lett, 2012).

Assays:
[1] = system: Escherichia coli; test: Antibacterial activity against Escherichia coli ATCC 25922 after 72 hrs by broth microdilution method; assay type: functional
[2] = system: Staphylococcus aureus; test: Antibacterial activity against Staphylococcus aureus subsp. aureus ATCC 29213 after 72 hrs by broth microdilution method; assay type: functional
[3] = system: Pseudomonas aeruginosa; test: Antibacterial activity against Pseudomonas aeruginosa Boston 41501 ATCC 27853 after 72 hrs by broth microdilution method; assay type: functional
[4] = system: Enterococcus faecalis; test: Antibacterial activity against Enterococcus faecalis ATCC 29212 after 72 hrs by broth microdilution method; assay type: functional
[5] = Solubility of the compound in water; assay type: physicochemical; settings: buffer
[6] = system: Staphylococcus aureus; test: Ratio of benzalkonium chloride MIC to compound MIC for Staphylococcus aureus subsp. aureus ATCC 29213; assay type: functional
[7] = system: Enterococcus faecalis; test: Ratio of benzalkonium chloride MIC to compound MIC for Enterococcus faecalis ATCC 29212; assay type: functional
[8] = system: Pseudomonas aeruginosa; test: Ratio of benzalkonium chloride MIC to compound MIC for Pseudomonas aeruginosa Boston 41501 ATCC 27853; assay type: functional
[9] = system: Escherichia coli; test: Ratio of benzalkonium chloride MIC to compound MIC for Escherichia coli ATCC 25922; assay type: functional
[10] = Escherichia coli, ATCC 25922, 72 h, read-out: MIC
[11] = Staphylococcus aureus, ATCC 29213, 72 h, read-out: MIC
[12] = Pseudomonas aeruginosa, Boston 41501 ATCC 27853, 72 h, read-out: MIC
[13] = Enterococcus faecalis, ATCC 29212, 72 h, read-out: MIC

Compound	MIC [1]	MIC [2]	MIC [3]	MIC [4]	solubility [5]	MIC [1, 10]	MIC [2, 11]	MIC [3, 12]	MIC [4, 13]	Ratio [6]	Ratio [7]	Ratio [8]	Ratio [9]
CCCCCCCCCC[n+]1ccc(-c2cc[n+](CCCCCCCCCC)cc2)cc1.[Cl-].[Cl-]	8 µM	2 µM	63 µM	4 µM	–	–	–	–	–	–	–	–	–
CCCCCCCCCC[n+]1ccc(-c2cc[n+](CCCCCCCCCC)cc2)cc1.[I-].[I-]	8 µM	2 µM	63 µM	4 µM	Insoluble	–	–	–	–	–	–	–	–
CCCCCCCCCCC[n+]1ccc(-c2cc[n+](CCCCCCCCCCC)cc2)cc1.[Cl-].[Cl-]	2 µM	2 µM	8 µM	2 µM	–	–	–	–	–	–	–	–	–
CCCCCCCCCCC[n+]1ccc(-c2cc[n+](CCCCCCCCCCC)cc2)cc1.[I-].[I-]	8 µM	4 µM	63 µM	8 µM	Insoluble	–	–	–	–	–	–	–	–
CCCCCCCCCCCC[n+]1ccc(-c2cc[n+](CCCCCCCCCCCC)cc2)cc1.[Cl-].[Cl-]	4 µM	2 µM	16 µM	4 µM	–	–	–	–	–	–	–	–	–
CCCCCCCCCCCC[n+]1ccc(-c2cc[n+](CCCCCCCCCCCC)cc2)cc1.[I-].[I-]	16 µM	8 µM	31 µM	16 µM	Insoluble	–	–	–	–	–	–	–	–
CCCCCCCCCCCCCCCC[n+]1ccc(-c2cc[n+](CCCCCCCCCCCCCCCC)cc2)cc1.[Cl-].[Cl-]	>250 µM	>250 µM	>250 µM	>250 µM	Insoluble	–	–	–	–	–	–	–	–
CCCCCCCCCCCCCCCC[n+]1ccc(-c2cc[n+](CCCCCCCCCCCCCCCC)cc2)cc1.[I-].[I-]	>250 µM	>250 µM	>250 µM	>250 µM	Insoluble	–	–	–	–	–	–	–	–
CCCCCCCCCCCC[n+]1ccc(-c2cc[n+](CCCCCCCCCC)cc2)cc1	–	–	–	–	–	2 µM	2 µM	8 µM	2 µM	–	–	–	–
CCCCCCCCCCCCCC[n+]1ccc(-c2cc[n+](CCCCCCCC)cc2)cc1	–	–	–	–	–	2 µM	2 µM	16 µM	2 µM	–	–	–	–
CCCCCCCCCCCCCCCC[n+]1ccc(-c2cc[n+](CCCCCC)cc2)cc1	–	–	–	–	–	8 µM	2 µM	31 µM	8 µM	–	–	–	–
CCCCCCCCCCCCCCCCCC[n+]1ccc(-c2cc[n+](CCCC)cc2)cc1	–	–	–	–	–	31 µM	8 µM	125 µM	31 µM	–	–	–	–
CCCCCCCCCCCCCCCCCCCC[n+]1ccc(-c2cc[n+](CC)cc2)cc1	–	–	–	–	–	125 µM	16 µM	> 250 µM	31 µM	–	–	–	–
CCCCCCCCCCCCCCCCCCCC[n+]1ccc(-c2cc[n+](C)cc2)cc1.[Br-].[I-]	–	–	–	–	Insoluble	125 µM	16 µM	> 250 µM	31 µM	–	–	–	–
CCCCCCCCCCCCCCCCCCCC[n+]1ccc(-c2ccncc2)cc1.[Br-]	–	–	–	–	Insoluble	> 250 µM	> 250 µM	> 250 µM	> 250 µM	–	–	–	–
CCCCCCCCCCCCCCCCCC[n+]1ccc(-c2cc[n+](CC)cc2)cc1	–	–	–	–	–	31 µM	8 µM	125 µM	31 µM	–	–	–	–
CCCCCCCCCCCCCCCCCC[n+]1ccc(-c2cc[n+](C)cc2)cc1.[Br-].[I-]	–	–	–	–	Insoluble	31 µM	8 µM	63 µM	31 µM	–	–	–	–
CCCCCCCCCCCCCCCCCC[n+]1ccc(-c2ccncc2)cc1.[Br-]	–	–	–	–	Insoluble	> 250 µM	16 µM	> 250 µM	31 µM	–	–	–	–

Compound	MIC [1]	MIC [2]	MIC [3]	MIC [4]	solubility [5]	MIC [1, 10]	MIC [2, 11]	MIC [3, 12]	MIC [4, 13]	Ratio [6]	Ratio [7]	Ratio [8]	Ratio [9]
CCCCCCCCCCCCCCCC[n+]1ccc(-c2cc[n+](CC)cc2)cc1.[Br-].[Br-]	–	–	–	–	Insoluble	63 µM	16 µM	250 µM	63 µM	–	–	–	–
CCCCCCCCCCCCCCCC[n+]1ccc(-c2cc[n+](C)cc2)cc1.[Br-].[I-]	–	–	–	–	Insoluble	31 µM	4 µM	125 µM	31 µM	–	–	–	–
CCCCCCCCCCCCCCCC[n+]1ccc(-c2ccncc2)cc1.[Br-]	–	–	–	–	Insoluble	63 µM	8 µM	> 250 µM	16 µM	–	–	–	–
CCCCCCCCCCCCCC[n+]1ccc(-c2cc[n+](CC)cc2)cc1	–	–	–	–	–	63 µM	8 µM	250 µM	31 µM	–	–	–	–
CCCCCCCCCCCCCC[n+]1ccc(-c2cc[n+](C)cc2)cc1.[Br-].[I-]	–	–	–	–	Insoluble	63 µM	4 µM	125 µM	31 µM	–	–	–	–
CCCCCCCCCCCCCC[n+]1ccc(-c2ccncc2)cc1	–	–	–	–	–	31 µM	8 µM	125 µM	16 µM	–	–	–	–
CCCCCCCCCCCC[n+]1ccc(-c2cc[n+](CC)cc2)cc1	–	–	–	–	–	250 µM	63 µM	> 250 µM	250 µM	–	–	–	–
CCCCCCCCCCCC[n+]1ccc(-c2cc[n+](C)cc2)cc1.[Br-].[I-]	–	–	–	–	Insoluble	125 µM	31 µM	250 µM	63 µM	–	–	–	–
CCCCCCCCCCCC[n+]1ccc(-c2ccncc2)cc1	–	–	–	–	–	63 µM	16 µM	> 250 µM	63 µM	–	–	–	–
CCCCCCCCCCCCCCCCCC[n+]1ccc(-c2cc[n+](CCCCCCCCCCCCCCCCCC)cc2)cc1.[Br-].[Br-]	–	–	–	–	Insoluble	> 250 µM	> 250 µM	> 250 µM	> 250 µM	–	–	–	–
CCCCCCCCCCCCCCCC[n+]1ccc(-c2cc[n+](CCCCCCCCCCCCCCCC)cc2)cc1.[Br-].[Br-]	–	–	–	–	Insoluble	> 250 µM	250 µM	> 250 µM	> 250 µM	–	–	–	–
CCCCCCCCCCCCCC[n+]1ccc(-c2cc[n+](CCCCCCCCCCCCCC)cc2)cc1.[Br-].[Br-]	–	–	–	–	Insoluble	250 µM	16 µM	> 250 µM	31 µM	–	–	–	–
CCCCCCCCCCCCC[n+]1ccc(-c2cc[n+](CCCCCCCCCCCCC)cc2)cc1.[Br-].[Br-]	–	–	–	–	Insoluble	16 µM	8 µM	250 µM	8 µM	–	–	–	–
CCCCCCCCCCCC[n+]1ccc(-c2cc[n+](CCCCCCCCCCCC)cc2)cc1.[Br-].[Br-]	4 µM	2 µM	–	4 µM	–	–	–	31 µM	–	–	–	–	–
CCCCCCCCCCC[n+]1ccc(-c2cc[n+](CCCCCCCCCCC)cc2)cc1.[Br-].[Br-]	2 µM	–	16 µM	2 µM	–	–	2 µM	–	–	4	4	4	4
CCCCCCCCCC[n+]1ccc(-c2cc[n+](CCCCCCCCCC)cc2)cc1	–	–	–	–	–	8 µM	2 µM	63 µM	4 µM	–	–	–	–
CCCCCCCC[n+]1ccc(-c2cc[n+](CCCCCCCC)cc2)cc1	–	–	–	–	–	> 250 µM	125 µM	> 250 µM	250 µM	–	–	–	–
C[n+]1ccc(-c2cc[n+](C)cc2)cc1	–	–	–	–	–	> 250 µM	> 250 µM	> 250 µM	> 250 µM	–	–	–	–
